Laboratory results as given in ChEMBL document CHEMBL1201862, “PubChem BioAssay data set” (2004).
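Step 1: Grow cells in 96-well plates. Step 2: Expose to compound for 48 hours at 5 concentrations. Step 3: Interpolate endpoints linearly; if unreached, use highest concentration. The concentration for 50% growth inhibition is given as GI50.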 Active and inactive are the calls of the source. No stated cut-off is given here; in the data, active = GI50 up to about 1.1 µM and inactive = higher.

How the values were obtained:
Assay in all cases: NCI anticancer screen, dose series, 48 h
XF498 = tested on: XF498
LXFL 529 = tested on: LXFL 529
M19-MEL = tested on: M19-MEL
HOP-18 = tested on: HOP-18
KM-20L2 = tested on: KM-20L2
DLD-1 = tested on: DLD-1
DMS-114 = tested on: DMS-114
SNB-78 = tested on: SNB-78
RXF 631 = tested on: RXF 631

Measured: GI50

CC(=O)OCC1C(=O)OCC1C(=O)N1Cc2cc3ccccc3nc2C1 (stereo not drawn)
inactive: XF498 1.82 µM | LXFL 529 1.8 µM | M19-MEL 8.05 µM | HOP-18 2.47 µM | KM-20L2 3.84 µM | DLD-1 1.61 µM | DMS-114 13.6 µM

COC1OC2COC(C)(C)OC2C(OC(C)=O)C1NC(=O)N(CCCl)N=O (stereo not drawn)
inactive: XF498 > 100 µM | LXFL 529 > 100 µM | M19-MEL > 100 µM | HOP-18 > 100 µM | KM-20L2 > 100 µM | DLD-1 > 100 µM | SNB-78 > 100 µM | DMS-114 > 100 µM

CCOC(=O)/C(=C\c1ccc(N(CCC#N)CCC#N)cc1)NC(=O)c1cc([N+](=O)[O-])ccc1Cl
inactive: RXF 631 > 100 µM | LXFL 529 > 100 µM | M19-MEL > 100 µM | HOP-18 > 100 µM | KM-20L2 > 100 µM | DLD-1 > 100 µM | SNB-78 > 100 µM | DMS-114 > 100 µM

COc1cc(/C=C/c2ccc(OC)c(OC)c2OC)cc(OC)c1OC
inactive: RXF 631 20 µM | XF498 25.5 µM | LXFL 529 17.3 µM | M19-MEL 20.2 µM | HOP-18 17.5 µM | KM-20L2 20.2 µM | DLD-1 18.3 µM | SNB-78 17.3 µM | DMS-114 18.2 µM

N#Cc1c2ccccc2cn1-c1ccc(F)cc1
inactive: XF498 42.2 µM | LXFL 529 31.3 µM | M19-MEL 37.8 µM | KM-20L2 31.9 µM | DLD-1 48.8 µM | DMS-114 16.2 µM

S=c1cc(S)c2c(=S)sc3nc4ccccn4c(=S)c3c2s1
inactive: XF498 > 100 µM | M19-MEL 35.5 µM | HOP-18 > 100 µM | KM-20L2 46.3 µM | DLD-1 > 100 µM | SNB-78 > 100 µM | DMS-114 7.03 µM

C/C=C(\CCOS(=O)(=O)c1ccc(C)cc1)[Si](C)(C)C
inactive: RXF 631 > 100 µM | XF498 > 100 µM | LXFL 529 > 100 µM | M19-MEL > 100 µM | HOP-18 > 100 µM | KM-20L2 > 100 µM | DLD-1 > 100 µM | SNB-78 > 100 µM | DMS-114 > 100 µM

Cc1ccc([S+]([O-])C(C)C(Cl)c2ccccc2)cc1 (stereo not drawn)
inactive: LXFL 529 81.1 µM | M19-MEL 54.3 µM | HOP-18 > 100 µM | KM-20L2 > 100 µM | DLD-1 > 100 µM | SNB-78 > 100 µM | DMS-114 28.2 µM

N#CC12CCC1C1CCCCC12N1CCSCC1 (stereo not drawn)
inactive: XF498 > 100 µM | LXFL 529 > 100 µM | M19-MEL > 100 µM | HOP-18 > 100 µM | KM-20L2 > 100 µM | DLD-1 > 100 µM | SNB-78 > 100 µM | DMS-114 > 100 µM

Cc1cc2c([nH]c3ccccc32)c2c1OC(C)(C)C1C3CC(C)(C)Oc4c(C)cc5c6ccccc6n(c5c43)C21 (stereo not drawn)
inactive: LXFL 529 > 100 µM | M19-MEL > 100 µM | HOP-18 > 100 µM | KM-20L2 > 100 µM | SNB-78 > 100 µM | DMS-114 > 100 µM

CSc1nc(SC)c2c(C(N)=S)n[nH]c2n1
inactive: RXF 631 32 µM | LXFL 529 29.6 µM | M19-MEL 28.2 µM | KM-20L2 23.1 µM | DLD-1 37 µM | SNB-78 31.8 µM | DMS-114 30.1 µM

N#Cc1c2c(c(N=[N+]=[N-])n3c1nc1ccccc13)CCCC2
inactive: XF498 1.75 µM | M19-MEL 1.75 µM | KM-20L2 2.24 µM | DLD-1 1.39 µM | SNB-78 3.56 µM | DMS-114 1.19 µM
